Active and inactive are the calls of the source. The rule behind the calls is not given here.
Columns and labels:
HGT = experiment: Growth inhibition of HGT cells; format: functional, cell-based; conditions: Homo sapiens
[1] = Inhibition of soybean 15-lipoxygenase assessed as residual activity by spectrophotometry; design: species or system Glycine max
MCF7 = experiment: Growth inhibition of human MCF7 cells; format: functional, cell-based

IC50 [1]: 650 µM
Structure (SMILES): C=C[C@]1(C)C=C2CC[C@@H]3[C@](C)(CCC[C@@]3(C)C(=O)O)[C@H]2CC1 [SANDARACOPIMARIC ACID]
Activity (HGT): inactive
Activity (MCF7): inactive

Reference: ChEMBL document CHEMBL1159221, “Crystal Structure of Sandaracopimaric Acid, a Lipoxygenase Inhibitor from Juniperus phoenicea” (J Nat Prod, 1995)
